# Values of other authors as cited in doi:10.1101/2024.08.20.608791v1 (bioRxiv, 2024).
# Conditions: assay not specified
row,Molecule,in vitro permeability (in words)
1,C=C1C[C@@]23CC[C@H]4[C@@](C)(CCC[C@@]4(C)C(=O)O[C@@H]4O[C@H](CO)[C@@H](O)[C@H](O)[C@H]4O)[C@@H]2CC[C@]1(O[C@@H]1O[C@H](CO)[C@@H](O)[C@H](O)[C@H]1O[C@@H]1O[C@H](CO)[C@@H](O)[C@H](O)[C@H]1O)C3 [stevioside],limited permeability
2,NNC(=O)NN1C(=O)c2cc(S(=O)(=O)O)cc3c(N)c(S(=O)(=O)O)cc(c23)C1=O [lucifer yellow CH],moderate in vitro permeability
3,pasireotide,low in vitro permeability

# Same assay, conditions: not able to quantify in an in vitro permeability assay (≤LOQ)
row,"in vitro permeability, not able to quantify",Molecule
1,≤ LOQ,CC(C)(C)OC(=O)N[C@H]1CCCCC/C=C\[C@@H]2C[C@@]2(C(=O)NS(=O)(=O)C2CC2)NC(=O)[C@@H]2C[C@@H](OC(=O)N3Cc4cccc(F)c4C3)CN2C1=O [danoprevir]
2,≤ LOQ,Cc1ccc(C(=O)Nc2ccc(S(=O)(=O)O)c3cc(S(=O)(=O)O)cc(S(=O)(=O)O)c23)cc1NC(=O)c1cccc(NC(=O)Nc2cccc(C(=O)Nc3cc(C(=O)Nc4ccc(S(=O)(=O)O)c5cc(S(=O)(=O)O)cc(S(=O)(=O)O)c45)ccc3C)c2)c1 [suramin]
3,≤ LOQ,CC(=O)O[C@H]1C(=O)[C@@]2(C)[C@H]([C@H](OC(=O)c3ccccc3)[C@]3(O)C[C@H](OC(=O)[C@H](O)[C@@H](NC(=O)c4ccccc4)c4ccccc4)C(C)=C1C3(C)C)[C@]1(OC(C)=O)CO[C@@H]1C[C@@H]2O [paclitaxel]
4,≤ LOQ,terlipressin
5,≤ LOQ,CC[C@]1(O)C[C@H]2CN(CCc3c([nH]c4ccccc34)[C@@](C(=O)OC)(c3cc4c(cc3OC)N(C=O)[C@H]3[C@@](O)(C(=O)OC)[C@H](OC(C)=O)[C@]5(CC)C=CCN6CC[C@]43[C@@H]65)C2)C1 [vincristine]
6,≤ LOQ,octreotide
7,≤ LOQ,dalbavancin

# Continued, molecule first:
row,Molecule,"in vitro permeability, not able to quantify"
1,N#C[C@H](O[C@@H]1O[C@H](CO[C@@H]2O[C@H](CO)[C@@H](O)[C@H](O)[C@H]2O)[C@@H](O)[C@H](O)[C@H]1O)c1ccccc1 [Amygdalin],≤ LOQ
2,CO/N=C(\C(=O)N[C@@H]1C(=O)N2C(C(=O)O)=C(CSc3nc(=O)c(=O)[nH]n3C)CS[C@H]12)c1csc(N)n1 [Ceftriaxone],≤ LOQ
3,Nc1nc(=O)c2c([nH]1)NCC(CNc1ccc(C(=O)N[C@@H](CCC(=O)O)C(=O)O)cc1)N2C=O (mixture of isomers) [Folinic acid],≤ LOQ
4,Vancomycin,≤ LOQ
5,CO/N=C(\C(=O)N[C@@H]1C(=O)N2C(C(=O)O)=C(CSc3nc(C)c(CC(=O)O)s3)CS[C@H]12)c1csc(N)n1 [Cefodizime],≤ LOQ

# Conditions: as reported in Table 1 and text; source and method not stated
row,Molecule,log P
1,COc1cc(F)c(C(C)C)cc1-c1ccc(C(F)(F)F)cc1CN1C(=O)O[C@H](c2cc(C(F)(F)F)cc(C(F)(F)F)c2)[C@@H]1C [anacetrapib],9.3
2,Neomycin,-6.6
3,CC[C@H]1OC(=O)[C@H](C)C(=O)[C@H](C)[C@@H](O[C@@H]2O[C@H](C)C[C@H](N(C)C)[C@H]2O)[C@](C)(OC/C=C/c2cnc3ccccc3c2)C[C@@H](C)C(=O)[C@H](C)[C@H]2NC(=O)O[C@@]21C [Cethromycin],5.4
4,CC(C)[C@@H](C)[C@@]1(C)CC[C@]2(C)[C@H]3CC[C@@H]4[C@@]5(COC[C@@]4(C)[C@@H](OC[C@](C)(N)C(C)(C)C)[C@H](n4ncnc4-c4ccncc4)C5)C3=CC[C@@]2(C)[C@@H]1C(=O)O [Ibrexafungerp],5.8
5,CN1Cc2c(Cl)cc(Cl)cc2[C@H](c2cccc(S(=O)(=O)NCCOCCOCCNC(=O)NCCCCNC(=O)NCCOCCOCCNS(=O)(=O)c3cccc([C@@H]4CN(C)Cc5c(Cl)cc(Cl)cc54)c3)c2)C1 [Tenapanor],4.8
